Patent US20250147039A1, “Compounds for complexation of rare earth elements and/or s-, p-, d- block metals, their coordination compounds, peptide conjugates, method of their preparation and use thereof” (USTAV ORGANICKE CHEMIE A BIOCHEMIE AV CR V.V.I., priority 2021, published 2025)

Assays:
[1] = Formation of 1,5-cz-[M(Lig)] from Lig and M^III ions (metal dependent click-zip) (Charts 4, 5); assay type: physicochemical; conditions: MOPS/NaOH buffer pH 7.0, TD728, TD827 in 50% i-PrOH; for conversion to 1,5-cz-[M(Lig)], Y^III: TD714 sum of two diastereoisomers
[2] = Formation of 1,5-cz-[Ln(Lig)] from Lig and Ln^III ions (metal dependent click-zip), MOPS/NaOH buffer pH 7.0, analytical HPLC (Charts 1, 2); conditions: MOPS/NaOH buffer pH 7.0

conversion to 1,5-cz-[M(Lig)], Sc^III ([1]; 1 week at 80° C.) [%] | conversion to 1,5-cz-[M(Lig)], Y^III ([1]; 1 week at 80° C.) [%] | conversion to 1,5-cz-[M(Lig)], Sc^III ([1]; 1 hour at 80° C.) [%] | conversion to 1,5-cz-[M(Lig)], Y^III ([1]; 1 hour at 80° C.) [%] | conversion to 1,5-cz-[Ln(Lig)], Ce^III ([2]; after 1 week at 80° C.) [%] | conversion to 1,5-cz-[Ln(Lig)], Ce^III ([2]; after 1 hour at 80° C.) [%] | conversion to 1,5-cz-[Ln(Lig)], Dy^III ([2]; after 1 week at 80° C.) [%] | conversion to 1,5-cz-[Ln(Lig)], Dy^III ([2]; after 1 hour at 80° C.) [%] | conversion to 1,5-cz-[Ln(Lig)], Er^III ([2]; after 1 week at 80° C.) [%] | conversion to 1,5-cz-[Ln(Lig)], Er^III ([2]; after 1 hour at 80° C.) [%] | conversion to 1,5-cz-[Ln(Lig)], Eu^III ([2]; after 1 week at 80° C.) [%] | conversion to 1,5-cz-[Ln(Lig)], Eu^III ([2]; after 1 hour at 80° C.) [%] | conversion to 1,5-cz-[Ln(Lig)], Gd^III ([2]; after 1 week at 80° C.) [%] | conversion to 1,5-cz-[Ln(Lig)], Gd^III ([2]; after 1 hour at 80° C.) [%] | conversion to 1,5-cz-[Ln(Lig)], Ho^III ([2]; after 1 week at 80° C.) [%] | conversion to 1,5-cz-[Ln(Lig)], Ho^III ([2]; after 1 hour at 80° C.) [%] | conversion to 1,5-cz-[Ln(Lig)], La^III ([2]; after 1 week at 80° C.) [%] | conversion to 1,5-cz-[Ln(Lig)], La^III ([2]; after 1 hour at 80° C.) [%] | conversion to 1,5-cz-[Ln(Lig)], Lu^III ([2]; after 1 week at 80° C.) [%] | conversion to 1,5-cz-[Ln(Lig)], Lu^III ([2]; after 1 hour at 80° C.) [%] | SMILES | other results
2 | 87 | 0 | 2 | 20 | 0 | 81 | 1 | 95 | 2 | 59 | 1 | 61 | 1 | 89 | 2 | 22 | 0 | 99 | 6 | [N-]=[N+]=NCc1cccc(CN2CCN(CC(=O)O)CCN(Cc3cccc(C#CC45CC6CC(CC(C6)C4)C5)n3)CCN(CC(=O)O)CC2)n1 [TD992] | conversion to 1,5-cz-[Ln(Lig)], Nd^III ([2]; after 1 week at 80° C.): 40%; conversion to 1,5-cz-[Ln(Lig)], Nd^III ([2]; after 1 hour at 80° C.): 0%; conversion to 1,5-cz-[Ln(Lig)], Pr^III ([2]; after 1 week at 80° C.): 33%; conversion to 1,5-cz-[Ln(Lig)], Pr^III ([2]; after 1 hour at 80° C.): 0%; conversion to 1,5-cz-[Ln(Lig)], Sm^III ([2]; after 1 week at 80° C.): 55%; conversion to 1,5-cz-[Ln(Lig)], Sm^III ([2]; after 1 hour at 80° C.): 1%; conversion to 1,5-cz-[Ln(Lig)], Tb^III ([2]; after 1 week at 80° C.): 73%; conversion to 1,5-cz-[Ln(Lig)], Tb^III ([2]; after 1 hour at 80° C.): 1%; conversion to 1,5-cz-[Ln(Lig)], Tm^III ([2]; after 1 week at 80° C.): 98%; conversion to 1,5-cz-[Ln(Lig)], Tm^III ([2]; after 1 hour at 80° C.): 4%; conversion to 1,5-cz-[Ln(Lig)], Yb^III ([2]; after 1 week at 80° C.): 99%; conversion to 1,5-cz-[Ln(Lig)], Yb^III ([2]; after 1 hour at 80° C.): 5%
61 | 80 | 4 | 16 | 4 | 0 | 70 | 10 | 88 | 26 | 28 | 3 | 33 | 3 | 79 | 16 | 4 | 0 | 98 | 63 | CC(C)(N)C#Cc1cccc(CN2CCN(CC(=O)O)CCN(Cc3cc(-c4ccccc4)cc(CN=[N+]=[N-])n3)CCN(CC(=O)O)CC2)n1 [TD1054] | conversion to 1,5-cz-[Ln(Lig)], Nd^III ([2]; after 1 week at 80° C.): 11%; conversion to 1,5-cz-[Ln(Lig)], Nd^III ([2]; after 1 hour at 80° C.): 1%; conversion to 1,5-cz-[Ln(Lig)], Pr^III ([2]; after 1 week at 80° C.): 10%; conversion to 1,5-cz-[Ln(Lig)], Pr^III ([2]; after 1 hour at 80° C.): 0%; conversion to 1,5-cz-[Ln(Lig)], Sm^III ([2]; after 1 week at 80° C.): 22%; conversion to 1,5-cz-[Ln(Lig)], Sm^III ([2]; after 1 hour at 80° C.): 2%; conversion to 1,5-cz-[Ln(Lig)], Tb^III ([2]; after 1 week at 80° C.): 55%; conversion to 1,5-cz-[Ln(Lig)], Tb^III ([2]; after 1 hour at 80° C.): 6%; conversion to 1,5-cz-[Ln(Lig)], Tm^III ([2]; after 1 week at 80° C.): 94%; conversion to 1,5-cz-[Ln(Lig)], Tm^III ([2]; after 1 hour at 80° C.): 39%; conversion to 1,5-cz-[Ln(Lig)], Yb^III ([2]; after 1 week at 80° C.): 97%; conversion to 1,5-cz-[Ln(Lig)], Yb^III ([2]; after 1 hour at 80° C.): 53%
